Test in all cases: relative viability (nuclei count vs DMSO), 5 days (fraction); higher = more cells survive
Compound in test [1]: C1=CC2=NC=CN=C2C=C1/C=C/3\C(=O)NC(=O)S3 + CC(=O)c1c(C)c2cnc(Nc3ccc(N4CCNCC4)cn3)nc2n(C2CCCC2)c1=O [Palbociclib] (partner 0.5 µM)
In outline: (§1)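 Relative viability equals treated-well nuclei counts divided by vehicle-well nuclei counts. Counts came from 4× images of lung cancer cell lines grown in 1536-well plates for 5 days after pin-tool dosing on the day after seeding. Dosing used one drug alone or a fixed anchor-drug dose plus five library-drug doses (not always all listed) in √10 steps, and values are medians of duplicate plates.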

Compound in test [2]: C1=CC2=NC=CN=C2C=C1/C=C/3\C(=O)NC(=O)S3 + CCNC(=O)c1noc(-c2cc(C(C)C)c(O)cc2O)c1-c1ccc(CN2CCOCC2)cc1 [Luminespib] (partner 0.01 µM)
In a few lines: as §1

Compound in test [3]: C1=CC2=NC=CN=C2C=C1/C=C/3\C(=O)NC(=O)S3 + Cc1nc(NC(=O)N2CCC[C@H]2C(N)=O)sc1-c1ccnc(C(C)(C)C(F)(F)F)c1 [Alpelisib] (partner 2 µM)
In outline:
as §1

Compound in test [4]: C1=CC2=NC=CN=C2C=C1/C=C/3\C(=O)NC(=O)S3 + N=C(N)NC(=N)NCCc1ccccc1 [Phenformin] (partner 250 µM)
In outline:
as §1

Regarding UMC-11, the relative viability in test [1] (first compound 0.02 µM) was 0.341; in test [1] (first compound 0.06325 µM), 0.328; in test [1] (first compound 0.2 µM), 0.33; in test [1] (first compound 0.6325 µM), 0.328; in test [1] (first compound 2 µM) it was 0.414; in test [2] (first compound 0.02 µM) it was 0.992. Also, the relative viability in test [2] (first compound 0.06325 µM) worked out at 1.11; in test [2] (first compound 0.2 µM), 1.05; in test [2] (first compound 0.6325 µM), 0.956; in test [2] (first compound 2 µM), 1.16; in test [3] (first compound 0.02 µM) it was 0.987; in test [3] (first compound 0.06325 µM) it was 1.19. Besides, the relative viability in test [3] (first compound 0.2 µM) was 0.989; in test [3] (first compound 0.6325 µM) it was 0.948; in test [3] (first compound 2 µM), 0.932; in test [4] (first compound 0.02 µM), 0.329; in test [4] (first compound 0.06325 µM), 0.335; in test [4] (first compound 0.2 µM) it was 0.373. Moreover, the relative viability in test [4] (first compound 0.6325 µM) is 0.338; in test [4] (first compound 2 µM), 0.331.

These data come from the supplement of paper PMC10307832.
